According to ChEMBL document CHEMBL1131933, “Cleavage of the cyclohexyl-subunit of rapamycin results in loss of immunosuppressive activity” (Bioorg Med Chem Lett, 1999):

Tests used:
[1] = target: Peptidyl-prolyl cis-trans isomerase FKBP1A (Homo sapiens, UniProt P62942); assay: Compound was tested in vitro for its ability to compete with immobilized FK506 for binding to biotinylated FK506 binding protein 12 in a competitive binding assay
[2] = Compound was tested in vitro for inhibitory activity in the mixed lymphocyte reaction (MLR) assay; assay type: functional
[3] = Compound was tested in vitro for its ability to inhibit the proliferation of the IL-6-dependent hybridoma clone B13-29-15; assay type: functional

Peptidyl-prolyl cis-trans isomerase FKBP1A, sequence (P62942 whole entry): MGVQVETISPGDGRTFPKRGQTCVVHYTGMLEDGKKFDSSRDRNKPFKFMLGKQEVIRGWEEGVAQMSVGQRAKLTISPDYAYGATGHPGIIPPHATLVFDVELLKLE

SMILES	IC50 [1] [nM]	IC50 [2] [nM]	IC50 [3] [nM]
COC(=O)CC[C@H](CCO)C[C@@H](C)[C@@H]1CC(=O)[C@H](C)/C=C(\C)[C@@H](O)[C@@H](OC)C(=O)[C@H](C)C[C@H](C)/C=C/C=C/C=C(\C)[C@@H](OC)C[C@@H]2CC[C@@H](C)[C@@](O)(O2)C(=O)C(=O)N2CCCC[C@H]2C(=O)O1	3.4	> 380	200
CO[C@H]1C[C@@H]2CC[C@@H](C)[C@@](O)(O2)C(=O)C(=O)N2CCCC[C@H]2C(=O)O[C@H]([C@H](C)C[C@@H]2CC[C@@H](O)[C@H](OC)C2)CC(=O)[C@H](C)/C=C(\C)[C@@H](O)[C@@H](OC)C(=O)[C@H](C)C[C@H](C)/C=C/C=C/C=C/1C [SIROLIMUS]	–	1	1
